We go through 8 molecules from PubChem BioAssay (NCI).

Assay in all cases: growth of human tumour cells (NCI), 48 h
Assay [1] relates to SF-539 CNS.
Assay [2] has as its system HCT-116 colon.
The test system of assay [3] is UACC-62 melanoma.
Assay [4] has as its system SK-OV-3 ovarian.
Assay [5] has as its system HOP-92 NSCLC.
Assay [6] concerns T-47D breast.
Assay [7] has as its system A498 renal.
Assay [8] concerns ACHN renal.
The subject of assay [9] is MDA-MB-231 breast.
Assay [10] concerns MALME-3M melanoma.

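Growth conditions: 96-well plates. Treatment: test compound, 48 hours, 5 concentrations. Analysis: linear interpolation between bracketing concentrations; unreached endpoints set to highest concentration. GI50: concentration for 50% inhibition of growth. TGI: concentration producing complete growth inhibition.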

Consider `CC12OOC(c3ccccc31)c1c2ccc2ccccc12` (stereo not drawn), for which the TGI in assay [1] is 22.3 µM; in [2] it was 3.21 µM; in assay [3] it was 21.2 µM; in assay [4], 34.3 µM; in assay [5], 9.94 µM; in assay [6] it was 3.84 µM. Also, the TGI in [7] is 32.1 µM; in [8], 3.51 µM; in [9] it was 26.6 µM; in [10], 5.79 µM.

For the molecule `NS(=O)(=O)OCC1OC(n2cnc3cncnc32)C(O)C1O` (stereo not drawn), the GI50 in assay [1] is 0.0206 µM; in assay [2], 0.0157 µM; in assay [3], 0.0371 µM; in assay [4], 0.0343 µM; in assay [5], 0.0183 µM; in [6] it was less than 0.0134 µM. The GI50 in assay [7] was 0.0216 µM; in assay [8], 0.0288 µM; in assay [9], 0.0101 µM; in assay [10] it was 0.0469 µM. The TGI in assay [1] was found to be 0.0467 µM; in assay [2] it was 0.033 µM; in assay [3] it was 0.133 µM; in [4] it was 0.137 µM; in assay [5] it was 0.0619 µM; in [6] it was 0.0665 µM. The TGI in [7] was determined as 0.0821 µM; in assay [8], 0.0945 µM; in assay [9], 0.0376 µM; in assay [10], 0.272 µM.

Regarding `CCN(CC)CCNc1ccc(C)c2sc3cc(Cl)ccc3c(=O)c12`, the GI50 in assay [1] is 1.6 µM; in assay [2], 1.65 µM; in assay [3], 1.87 µM; in assay [4], 1.77 µM; in assay [5] it was 0.665 µM; in [6], 1.65 µM. The figures for the GI50 in [7], in assay [9] and in [10] were 1.89 µM, 1.41 µM and 1.84 µM, respectively. The TGI in assay [1] was 3 µM; in assay [2] it was 3.15 µM; in assay [3], 3.54 µM; in assay [4] it was 4.88 µM; in [5], 2.24 µM; in [6], 4.02 µM. The TGI in assay [7] turned out to be 4.79 µM; in assay [9] it was 2.93 µM; in assay [10], 3.61 µM.

For `Cc1ccc(NC(=O)c2ccc(CN3CCN(C)CC3)cc2)cc1Nc1nccc(-c2cccnc2)n1`, the GI50 in [1] is 8.06 µM; in assay [2], 13.2 µM; in assay [3] it was 19.2 µM; in [4], 28.7 µM; in assay [5], 12.6 µM; in [6] it was 16.9 µM. Besides, the GI50 in [7] is 20.6 µM; in assay [8] it was 24.1 µM; in assay [9], 18.3 µM; in assay [10] it was 16.5 µM. For the same molecule, the TGI in assay [1] is 22.4 µM; in assay [2], 42.6 µM; in assay [3], 40.5 µM; in assay [4], 80.9 µM; in assay [5] it was 37.3 µM; in assay [6], 49.6 µM. The TGI in assay [7] amounted to 39.2 µM; in assay [8], 72.9 µM; in assay [9] it was 46.2 µM; in assay [10], 32 µM.

As to `CC1(C)N=C(N)N=C(N)N1c1ccc(CCCCc2ccccc2)c(Cl)c1`, the GI50 in assay [1] was 0.121 µM; in assay [2], less than 0.01 µM; in assay [3], 0.0505 µM; in assay [4], 0.43 µM; in assay [5], 0.464 µM; in assay [6], 0.499 µM. Further, the GI50 is 0.746 µM in assay [7], 0.461 µM in assay [8], 0.444 µM in assay [9] and 0.855 µM in assay [10]. In addition, the TGI came to 5.14 µM in [1]; 1.61 µM in assay [2]; 2.67 µM in [3]; 11.1 µM in assay [4]; 4.48 µM in assay [5]; 12.8 µM in [6]. Further, the TGI in [7] worked out at 14.5 µM; in assay [8], 22.1 µM; in [9], 5.85 µM; in [10], 8.93 µM.

`O=C(c1ccco1)c1nc2cc(C(F)(F)F)ccc2nc1C(F)(F)F`: the GI50 in assay [1] was greater than 100 µM; in assay [2] it was greater than 100 µM; in assay [3] it was greater than 100 µM; in [4], greater than 100 µM; in assay [5], 27.2 µM; in [6] it was 72 µM. The GI50 in assay [7] is greater than 100 µM; in [8], greater than 100 µM; in assay [9] it was 99.1 µM; in [10], greater than 100 µM. In addition, the TGI in [1], in [2], in assay [3], in assay [4], in assay [5] and in [6] was greater than 100 µM in each case. Besides, the TGI in assay [7], in [8], in assay [9] and in assay [10] was greater than 100 µM throughout.

Consider `COc1ccc(C(=O)Nc2ncc(Cc3cccc(Cl)c3)s2)cc1OC`, for which the GI50 in assay [1] was 0.312 µM; in assay [2], 0.0769 µM; in [3], 0.0173 µM; in assay [4] it was 3.59 µM; in assay [5], 1.99 µM; in assay [6], 0.169 µM. In addition, the GI50 is 0.211 µM in assay [7], 0.0812 µM in assay [8], 1.77 µM in [9] and 0.748 µM in assay [10]. Also, the TGI in assay [1] was 2.5 µM; in [2] it was greater than 100 µM; in [3], greater than 100 µM; in assay [4], greater than 100 µM; in [5] it was greater than 100 µM; in assay [6], greater than 100 µM. Besides, the TGI was 1.89 µM in assay [7], greater than 100 µM in [8], greater than 100 µM in assay [9] and greater than 100 µM in assay [10].

For the molecule `Nc1c(C(=O)c2ccc(-c3cccnc3)cc2)cnn1-c1ccc(F)cc1`, the GI50 in assay [1] was greater than 16.7 µM; in assay [2] it was greater than 14 µM; in assay [3], greater than 21.1 µM; in assay [4] it was greater than 14.2 µM; in assay [5], greater than 25 µM; in assay [6] it was 9.72 µM. Also, the GI50 in assay [7] is greater than 18.8 µM; in assay [8], greater than 10.9 µM; in assay [9], greater than 13.1 µM; in [10] it was 11 µM. Moreover, the TGI in assay [1] was greater than 25 µM; in [2] it was greater than 25 µM; in assay [3], greater than 25 µM; in [4], greater than 23 µM; in assay [5], greater than 25 µM; in [6] it was greater than 21.7 µM. Also, the TGI in [7] was greater than 25 µM; in assay [8], greater than 16 µM; in assay [9], greater than 25 µM; in assay [10] it was greater than 20.3 µM.
